Results reported in paper PMC12261233, “Photoactivatable Cyclometalated Ir(III) Compound Penetrates the Blood-Brain Barrier in 3D Spheroidal and Advanced 3D Organoid Models of Inherently Resistant and Aggressive Brain Tumors” (ACS Pharmacology & Translational Science, 2025).
Where two headings read alike, the source gives them in different places.

Columns and labels:
Assay type in all cases: cell-based, human
U87MG cells = experiment: Antiproliferative activity, 2D monolayer, SRB assay; details: for PI (phototoxicity index) 2D: IC50 dark / IC50 420 nm irradiated; for IC50: U87MG 2D monolayer, 90 min treatment, SRB
Description: The antiproliferative activity of the compounds under investigation was assessed using the Sulforhodamine B (SRB) assay on both 2D cell monolayers and 3D spheroids. For the 2D cell monolayer assay, cells were seeded in 96-well tissue culture plates at a density of 3 × 10^3 cells/well in 100 μL of culture medium. Following overnight incubation in a humidified CO2 incubator, the medium was replaced, and the cells were treated with the investigated compounds in a final volume of 200 μL/well of Earle’s Balanced Salt Solution (EBSS). The cells were then exposed to the tested compounds for 1.5 h under dark conditions (5% CO2, 37 °C) and subsequently irradiated with blue light (420 nm) for 30 min at an intensity of 58 W/m^2. After treatment, the samples were washed with Phosphate-Buffered Saline (PBS) and replenished with 200 μL of culture medium. Following an additional 70-h incubation, the cells were washed with PBS, fixed with trichloroacetic acid at 4 °C for 1 h, and stained with 0.4% SRB dye for 30 min. The stained cells were dissolved with Tris (10 mM), and the cell viability was assessed by measuring the absorbance at 570 nm using an Absorbance Reader (SPARK TECAN, SCHOELLER). […] After the 72-h spheroid formation period, the samples were treated and irradiated as described for the 2D cultures. […] The luminescence signal was detected using the plate reader SPARK (Tecan, Manedorf, Switzerland), and the IC50 values were calculated from the survival curves. All experiments were conducted in triplicate to ensure the reliability and reproducibility of the results. Furthermore, the concentrations of the compounds in the medium during the treatment were verified using Flame Atomic Absorption Spectroscopy (FAAS) or Inductively Coupled Plasma Mass Spectrometry (ICP-MS). […]
drug-free incubation. c IC50 values were determined by SRB assay. d IC50 values were determined by CellTiter-Glo® 3D chemiluminescent assay. e PI - phototoxicity index was calculated as the ratio of IC50 determined under the dark conditions / IC50 determined for 420 […]
models under irradiation conditions.

[1] = test system: U87MG-RFP spheroids implanted into cerebral organoids; experiment: Glioblastoma intergrowth/spreading area in cerebral organoid-U87MG-RFP spheroid fusion system; details: for glioblastoma spreading area, Δ 0h-120h, not irradiated: TMZ 100 μM or Ir4 2 μM for 3 h, no blue light
Description: In this study, U87MG-RFP glioblastoma spheroids were preformed over 72 h, implanted into cerebral organoid tissue, and coembedded in Matrigel. […] Samples designated for irradiation were exposed to blue laser light (405 nm, 60 s, 1 mW) and subsequently cultured in drug-free medium for 120 h. Z-stacking confocal imaging and ImageJ analysis quantified the area of glioblastoma spreading (Figure , panels III and IV).
An implant fusion model was established to monitor the distribution of Ir4 within the tumor, represented by the implanted tumorspheres generated from U87MG, and healthy tissue, represented by the hiPSC-derived cerebral organoid. Before the implantation procedure, spheroids derived from U87MG glioblastoma were cultured for 72 h under 3D forming conditions using ULA plates (96-well U-shaped plate, Corning) in DMEM-F12 supplemented with 2% B27, epidermal growth factor (EGF) at 20 ng mL^–1, fibroblast growth factor 2 (FGF2) at 10 ng mL^–1, and BSA (0.15%). Cerebral organoids were generated through a four-step directed differentiation process from human induced pluripotent stem cells (hiPSCs, Gibco). The hiPSCs were cultured on Geltrex matrix (hESC-Qualified, Reduced Growth Factor Basement Membrane Matrix; Gibco) in StemFlex basal medium (DMEM/F12, Ham, 1:1) fully supplemented with StemFlex supplement (Gibco). The preformation of cerebral organoids, involving the formation of embryoid bodies (EBs), was maintained in U-shape ultralow attachment 96-well plates (ULA, Corning) with 9000 hiPSCs per well in fully supplemented Stemdiff Cerebral organoid medium and 10 μM of the rock inhibitor Y27632. The EBs were cultured for 4 days to establish round-shaped EBs with a diameter of approximately 400 μm. Subsequently, 2 EBs per well were transferred to 24-well ULA plates, and differentiation into neural ectoderm was induced for an additional 2 days using the Stemdiff Cerebral Organoid Kit (StemCell Technologies, CA). Following this, early organoids were embedded in the Matrigel matrix (suitable for organoid culture, Corning) and directed toward further differentiation into neuroectoderm. After the initial differentiation phase, early organoids were monitored for the development of optically clear neuroectoderm (characterized by an optically bright, translucent surface) and the formation of large buds of translucent ectoderm that were not radially organized. Postembedding, the organoids were cultured on 6-well ULA plates under continuous orbital shaker agitation (50 rpm). […] The samples were then transferred to confocal Petri dishes containing drug-free cerebral maturation medium and analyzed using a confocal microscope (Leica CM SP5, Leica, Germany). […]

[2] = test system: hiPSC-derived cerebral organoids; experiment: Cerebral organoid volume growth after treatment (healthy tissue); details: fusion system, untreated control 25%
Description: To assess the treatment’s impact on healthy tissue, cerebral organoid volumes were measured using phase-contrast or bright-field confocal microscopy with manually defined regions of interest.

[3] = dark, 70 h drug-free incubation, read-out: IC50 2D Dark
[4] = 30 min blue light 420 nm 58 W m-2, 70 h drug-free, read-out: IC50 2D Irradiated

Structure (SMILES): Cc1ccc(-c2cc3[n+]4c(c2)-c2cccc[n+]2[Ir-3]42([Cl])([c]4c(ccc5c4OCO5)-c4n(Cc5ccc(C(F)(F)F)cc5)c5ccccc5[n+]42)[n+]2ccccc2-3)cc1.F[P-](F)(F)(F)(F)F [Ir5]
- PI (phototoxicity index) 2D (U87MG cells): 60
- IC50 (U87MG cells; [3]): 25.3 ± 2.1 µM
- IC50 (U87MG cells; [4]): 0.42 ± 0.03 µM

Structure (SMILES): Cn1nnc2c(C(N)=O)ncn2c1=O [Temozolomide, reference compound]
- IC50 (U87MG cells; Homo sapiens, U-87 MG, dark, 70 h drug-free incubation, read-out: IC50 2D Dark): ≥ 100 µM
- glioblastoma spreading area, Δ 0h-120h, not irradiated ([1]; 120 h drug-free): 8.7 fold
- increase in cerebral organoid volume over 120 h [2]: 21%

Structure (SMILES): CCCCn1c2[n+](c3cc(C(=O)OC)ccc31)[Ir-3]13([Cl])([c]4ccccc4-2)[n+]2ccccc2-c2cc(-c4ccc(C)cc4)cc([n+]21)-c1cccc[n+]13.F[P-](F)(F)(F)(F)F [Ir4]
- PI (phototoxicity index) 2D (U87MG cells): 41
- IC50 (U87MG cells; [3]): 21.3 ± 1.4 µM
- IC50 (U87MG cells; [4]): 0.52 ± 0.08 µM
- glioblastoma spreading area, Δ 0h-120h, irradiated ([1]; Ir4 2 μM 3 h, 405 nm 60 s 1 mW, 120 h drug-free): 0.6 fold
- glioblastoma spreading area, Δ 0h-120h, not irradiated ([1]; 120 h drug-free): 2.1 fold
- spreading area relative to TMZ ([1]; nonirradiated, Ir4 concentration 50 times lower than TMZ): four times smaller
- increase in cerebral organoid volume over 120 h [2]: 24%

Structure (SMILES): Cc1ccc(-c2cc3[n+]4c(c2)-c2cccc[n+]2[Ir-3]42([Cl])([c]4cc5ccccc5cc4-c4n(Cc5ccc(C(F)(F)F)cc5)c5ccccc5[n+]42)[n+]2ccccc2-3)cc1.F[P-](F)(F)(F)(F)F [Ir3]
- PI (phototoxicity index) 2D (U87MG cells): 45
- IC50 (U87MG cells; [3]): 30.4 ± 4.3 µM
- IC50 (U87MG cells; [4]): 0.67 ± 0.08 µM
